Legend:
[1] = target: T1, CYP17 (17-lyase) (Homo sapiens, UniProt P05093); experiment: Selectivity: effect on CYP17 (17-lyase); type: biochemical; settings: concentration as high as 5 μM
T1 sequence (P05093 1-508): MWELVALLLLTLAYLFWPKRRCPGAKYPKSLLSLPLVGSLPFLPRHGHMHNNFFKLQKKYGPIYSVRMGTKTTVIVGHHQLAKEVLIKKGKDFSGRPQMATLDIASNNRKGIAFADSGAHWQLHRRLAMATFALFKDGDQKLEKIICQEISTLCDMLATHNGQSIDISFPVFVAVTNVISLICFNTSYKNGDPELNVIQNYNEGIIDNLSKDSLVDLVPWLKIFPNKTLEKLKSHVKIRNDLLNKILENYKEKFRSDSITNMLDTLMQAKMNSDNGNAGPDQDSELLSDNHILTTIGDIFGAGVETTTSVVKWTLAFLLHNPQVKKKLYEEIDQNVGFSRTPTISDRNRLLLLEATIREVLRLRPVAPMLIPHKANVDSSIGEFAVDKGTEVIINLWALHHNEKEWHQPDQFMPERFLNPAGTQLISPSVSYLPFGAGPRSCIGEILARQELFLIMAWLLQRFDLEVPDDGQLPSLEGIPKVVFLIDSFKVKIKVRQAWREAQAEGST
Experimental: The selectivity of the compounds of the present invention towards ATRA-4-hydroxylase was tested by measuring the effect on the key enzymes in the biosynthesis of estradiol and dehydroepiandrosterone, CYP19 (aromatase) and CYP17 (17-lyase), respectively.

[2] = target: T2, RARα (Homo sapiens, UniProt P10276); experiment: Competitive [3H]ATRA binding to recombinant RARα; settings: for binding to RARα: concentrations up to 500 nM
T2 construct: Recombinant full-length RAR proteins were expressed as S-Tag fusion proteins in BL21 E. coli cells; S-Tag; made in house; host or cells: E. coli BL21
T2 sequence (P10276 1-462): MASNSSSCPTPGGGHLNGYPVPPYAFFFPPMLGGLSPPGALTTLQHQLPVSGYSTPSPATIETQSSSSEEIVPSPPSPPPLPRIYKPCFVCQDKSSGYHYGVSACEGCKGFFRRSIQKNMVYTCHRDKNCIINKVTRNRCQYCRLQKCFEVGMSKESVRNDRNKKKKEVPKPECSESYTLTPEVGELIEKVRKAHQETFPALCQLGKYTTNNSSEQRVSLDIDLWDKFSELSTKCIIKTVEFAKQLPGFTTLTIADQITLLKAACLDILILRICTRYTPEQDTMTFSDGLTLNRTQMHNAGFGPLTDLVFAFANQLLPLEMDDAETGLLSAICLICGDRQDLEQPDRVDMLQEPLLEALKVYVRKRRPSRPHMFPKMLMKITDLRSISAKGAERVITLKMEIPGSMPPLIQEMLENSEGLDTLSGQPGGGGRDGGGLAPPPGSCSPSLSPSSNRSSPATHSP
Text: (§1) Because the novel compounds are retinoid-related analogs, they bind to the retinoid receptors in vivo and thus have increased therapeutic potentials. Similar to ATRA, these novel compounds act as a ligand for the retinoic acid receptors (RARs, α, β, and γ) but not the retinoid X receptors (RXRs, α, β, and γ). […] (Nervi C, Grippo J F, Sherman M I, George M D, Jetten A M, Identification and characterization of nuclear retinoic acid-binding activity inhuman myeloblastic leukemia HL-60 cells, Proc Natl Acad Sci USA 86: 5854-5858, 1989) The dissociation constants for the inhibitors is determined by the well described charcoal absorption method (Yang N, Schule R, Mangelsdorf D J, Evans R M, Characterization of DNA binding and retinoic acid binding properties of retinoic acid receptor, Proc Natl Acad Sci USA 88: 3559-3663, 1991). Briefly, serial dilutions of the novel compounds (10^−11 to 10^−5 M) in dimethyl sulfoxide, 100 μL each is used. 12 mg of crude cytosolic extracts is prepared from pET15b (Novagen, Madison, Wis.)/hRAR-α, -β, and -γ prepared protein is used for each data point. All reactions are conducted in binding buffer (60 mM Na imidazole, 500 mM NaCl, 20 mM Tris, pH 7.9) for 14-16 hours at 4° C. in a final volume of 1 mL. Unbound [^3H]ATRA is removed by addition of 0.5 mL of equivalent-sized dextran-treated charcoal (final concentration 3% [wt/vol]) for 15 minutes at 4° C. […]
(§2) Since the RAMBAs are retinoic acid analogs, it is possible that some of the compounds may bind to retinoid receptors and function as either transcriptional agonists/antagonists or may display anti AP-1 activity (Chambon P, A decade of molecular biology of retinoic acid, FASEB J 10: 5899-5904, 19962. The ability of three RAMBAs, VN/14-1, VN/50A-1 and VN/66-1 to bind to the individual RAR receptors was thus evaluated in vitro. Recombinant full-length RAR proteins were expressed as S-Tag fusion proteins in BL21 E. coli cells used for competitive binding assays. Each competition-binding assay contained 1 nM [^3H] […]

[3] = target: T3, RARγ (Homo sapiens, UniProt P13631); experiment: Competitive [3H]ATRA binding to recombinant RARγ; settings: for binding to RARγ: concentrations up to 500 nM
T3 construct: Recombinant full-length RAR proteins were expressed as S-Tag fusion proteins in BL21 E. coli cells; S-Tag; made in house; host or cells: E. coli BL21
T3 sequence (P13631 1-454): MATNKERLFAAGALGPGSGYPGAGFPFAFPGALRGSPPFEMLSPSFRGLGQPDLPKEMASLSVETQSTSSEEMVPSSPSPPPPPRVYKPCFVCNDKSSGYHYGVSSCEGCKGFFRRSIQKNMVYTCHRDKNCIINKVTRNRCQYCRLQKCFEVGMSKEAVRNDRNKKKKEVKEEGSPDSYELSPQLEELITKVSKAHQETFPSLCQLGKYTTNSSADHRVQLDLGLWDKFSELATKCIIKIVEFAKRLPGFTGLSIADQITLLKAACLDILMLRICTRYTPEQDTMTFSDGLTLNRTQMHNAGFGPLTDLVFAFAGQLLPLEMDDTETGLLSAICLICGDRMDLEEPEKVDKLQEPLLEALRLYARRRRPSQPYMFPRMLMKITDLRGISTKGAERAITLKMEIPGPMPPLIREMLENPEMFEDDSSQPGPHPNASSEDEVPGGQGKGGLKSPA
Text: as §1, §2

[4] = 1 nM [3H]ATRA, competitor 1 nM to 500 nM

Row | Compound | inhibition of CYP17 (17-lyase) [1] | binding to RARα [2] | binding to RARγ [3] | IC50 [2, 4] [nM] | IC50 [3, 4] [nM]
1 | CC(C=CC1=C(C)C(n2ccnc2)CCC1(C)C)=CC=CC(C)=CC(=O)n1ccnc1 (stereo not drawn) [VN/50A-1] | barely inhibited | did not bind | did not bind |  | 
2 | CC1=C(/C=C/C(C)=C/C=C/C(C)=C/C(=O)O)C(C)(C)CCC1n1ccnc1 (racemic) [VN/14-1, (±)-4-(1H-imidazole-1-yl)retinoic acid] | barely inhibited |  |  | ~16 | ~16
3 | CC(C=CC1=C(C)C(n2ccnc2)CCC1(C)C)=CC=CC(C)=CC(=O)Nc1ccc(O)cc1 (racemic) [VN/66-1, (±)-4-(1H-imidazol-1-yl), N-(4′-hydroxyphenyl)retinamide] | barely inhibited | did not bind | did not bind |  | 
